# Patent publication US11976083B2, “Inhibitors of peptidylarginine deiminases” (Gilead Sciences, Inc., priority 2020, dated 2024)
# Molecular target: T1, human PAD4 (Homo sapiens, UniProt Q9UM07)
# T1 construct: human PAD4 (NM_012387), A2-P663, was PCR amplified; His-SUMO (N, cleaved yes); made in house; host or cells: E. coli BL21(DE3)
# Experiment: In vitro PAD4 BAEE biochemical assay
# Details: BAEE substrate 3 mM, 5 nM PAD4, 2 mM calcium chloride; geometric mean of multiple experiments
# Summary of the method: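 Ammonia produced by BAEE deimination (3 mM substrate, 2 h, 25 °C) was read as fluorescent isoindole after o-phthalaldehyde/DTT derivatization, ex 405 nm/em 535 nm. Human PAD4 at 5 nM final, 2 mM calcium, pH 7.6 MOPS; compound preincubated 30 min. IC50s, normalized to BB-Cl-Amidine and DMSO controls, were geometric-mean averaged.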
# T1 sequence (Q9UM07 2-663): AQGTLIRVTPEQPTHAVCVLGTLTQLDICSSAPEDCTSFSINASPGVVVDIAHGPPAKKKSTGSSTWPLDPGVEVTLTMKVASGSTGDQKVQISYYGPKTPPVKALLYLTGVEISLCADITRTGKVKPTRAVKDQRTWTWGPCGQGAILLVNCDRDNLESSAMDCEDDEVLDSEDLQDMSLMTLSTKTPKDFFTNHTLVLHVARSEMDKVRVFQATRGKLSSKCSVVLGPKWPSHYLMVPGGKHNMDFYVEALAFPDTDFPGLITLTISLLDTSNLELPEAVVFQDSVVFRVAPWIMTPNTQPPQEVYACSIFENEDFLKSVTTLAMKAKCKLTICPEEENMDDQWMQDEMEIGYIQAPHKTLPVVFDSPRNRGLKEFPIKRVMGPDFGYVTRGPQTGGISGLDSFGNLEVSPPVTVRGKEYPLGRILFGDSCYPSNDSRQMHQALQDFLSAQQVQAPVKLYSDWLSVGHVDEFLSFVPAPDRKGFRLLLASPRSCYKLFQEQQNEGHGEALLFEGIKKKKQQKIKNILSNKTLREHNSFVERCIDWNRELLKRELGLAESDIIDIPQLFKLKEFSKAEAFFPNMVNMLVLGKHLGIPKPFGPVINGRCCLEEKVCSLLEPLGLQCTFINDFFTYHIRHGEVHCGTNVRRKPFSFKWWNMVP
row,Structure (SMILES),IC50
1,"COc1cc(C(=O)N2C[C@H](N)[C@@H]3CC[C@H]2C3)cc2nc(-c3cc4ccc5nc4n3CCCCC[C@H]3[C@H](C(=O)N[C@@H]5C)C3(F)F)n(C3CC3)c12 [Example 930, (2~{R},5~{R},7~{S})-14-[5-[(1~{S},4~{R},5~{R})-4-amino-2-azabicyclo[3.2.1]octane-2-carbonyl]-1-cyclopropyl-7-methoxy-benzimidazol-2-yl]-6,6-difluoro-2-methyl-3,13,19-triazatetracyclo[11.5.2.0^ {5,7}.0^{16,20}]icosa-1(19), 14,16(20),17-tetraen-4-one]",22 nM
2,"COc1cc(C(=O)N2C[C@H](N)[C@@H]3CC[C@H]2C3)cc2nc(-c3cc4ccc5nc4n3CC(F)(F)CCCOC3(CC3)C(=O)N[C@@H]5C)n(C3CC3)c12 [Example 931, (11~{R})-17-[5-[(1~{S},4~{R}, 5~{R})-4-amino-2-azabicyclo [3.2.1]octane-2-carbonyl]-1-cyclopropyl-7-methoxy-benzimidazol-2-yl]-3,3-difluoro-11-methyl-spiro[7-oxa-1,10,19-triazatricyclo[10.5.2.0^ {15,18}]nonadeca-12(19), 13,15(18),16-tetraene-8,1′-cyclopropane]-9-one]",64 nM
3,"COc1cc(C(=O)N2C[C@H](N)[C@@H]3CC[C@H]2C3)cc2nc(-c3cc4ccc5nc4n3CCCCCc3nc(Cl)ccc3C(=O)NC5(C)C)n(C)c12 [Example 932, 17-[5-[(1~{S},4~{R},5~{R})-4-amino-2-azabicyclo[3.2.1]octane-2-carbonyl]-7-methoxy-1-methyl-benzimidazol-2-yl]-8-chloro-2,2-dimethyl-3,9,16,22-tetrazatetracyclo[14.5.2.0^ {5,10}.0^{19,23}]tricosa-1(21),5(10),6,8,17,19,22-heptaen-4-one]",58 nM
4,"COc1cc(C(=O)N2C[C@H](N)[C@@H]3CC[C@H]2C3)cc2nc(-c3cc4ccc5nc4n3CCCCC[C@]3(F)C[C@H]3C(=O)NC5(C)C)n(C)c12 [Example 933, (5~{S},7~{S})-14-[5-[(1~{S},4~{R},5~{R})-4-amino-2-azabicyclo[3.2.1]octane-2-carbonyl]-7-methoxy-1-methyl-benzimidazol-2-yl]-7-fluoro-2,2-dimethyl-3,13,19-triazatetracyclo[11.5.2.0^ {5,7}.0^{16,20}]icosa-1(18), 14,16,19-tetraen-4-one]",27 nM
5,"COc1cc(C(=O)N2C[C@H](N)[C@@H]3CC[C@H]2C3)cc2nc(-c3cc4ccc5nc4n3CCCCCc3nc(C(F)(F)F)ncc3C(=O)N[C@@H]5C)n(C3CC3)c12 [Example 934, (2~{R})-17-[5-[(1~{S),4~{R},5~ {R})-4-amino-2-azabicyclo [3.2.1]octane-2-carbonyl]-1-cyclopropyl-7-methoxy-benzimidazol-2-yl]-2-methyl-8-(trifluoromethyl)-3,7,9,16,22-pentazatetracyclo[14.5.2.0^ {5,10}.0^{19,23}]tricosa-1(21),5(10),6,8,17,19,22-heptaen-4-one]",103 nM
6,"COc1cc(C(=O)N2C[C@H](N)[C@@H]3CC[C@H]2C3)cc2nc(-c3cc4ccc5nc4n3CCCCCc3cc(F)cc(F)c3C(=O)N[C@@H]5C)n(C)c12 [Example 935, (2~{R})-17-[5-[(1~{S),4~{R},5~ {R})-4-amino-2-azabicyclo[3.2.1]octane-2-carbonyl]-7-methoxy-1-methyl-benzimidazol-2-yl]-6,8-difluoro-2-methyl-3,16,22-triazatetracyclo[14.5.2.0^ {5,10}.0^{19,23}]tricosa-1(21),5(10),6,8,17,19,22-heptaen-4-one]",29 nM
7,"COc1cc(C(=O)N2C[C@H](N)[C@@H]3CC[C@H]2C3)cc2nc(-c3cc4ccc5nc4n3CCCCCc3ccccc3C(=O)N[C@@H]5C)c(C)n12 [Example 936, (2~{R})-17-[7-[(1~{S},4~{R}, 5~{R})-4-amino-2-azabicyclo [3.2.1]octane-2-carbonyl]-5-methoxy-3-methyl-imidazo [1,2-a]pyridin-2-yl]-2-methyl-3,16,22-triazatetracyclo [14.5.2.0^{5,10).0^{19,23}] tricosa-1(21),5(10),6,8,17,19,22-heptaen-4-one]",39 nM
8,COc1cc(C(=O)N2CCC[C@@H](N)C2)cc2nc(-c3cc4ccc5nc4n3CCCCCCCCS(=O)(=O)N5C)n(C)c12 [Example 937],187 nM
9,"CCn1c(-c2cc3ccc4nc3n2CCCCC[C@]2(F)C[C@H]2C(=O)N[C@@H]4C)nc2cc(C(=O)N3C[C@H](N)[C@@H]4CC[C@H]3C4)cc(F)c21 [Example 938, (2~{R},5~{S},7~{S})-14-[5-[(1~{S),4~{R},5~{R})-4-amino-2-azabicyclo[3.2.1]octane-2-carbonyl]-1-ethyl-7-fluoro-benzimidazol-2-yl]-7-fluoro-2-methyl-3,13,19-triazatetracyclo[11.5.2.0^ {5,7}.0^{16,20}]icosa-1(19), 14,16(20),17-tetraen-4-one]",28 nM
10,"CCn1c(-c2cc3ccc4nc3n2CCCCCc2nc(Cl)ccc2C(=O)N[C@@H]4C)nc2cc(C(=O)N3C[C@H](N)[C@@H]4CC[C@H]3C4)cc(F)c21 [Example 939, (2~{R})-17-[5-[(1~{S),4~{R}, 5~{R})-4-amino-2-azabicyclo [3.2.1]octane-2-carbonyl]-1-ethyl-7-fluoro-benzimidazol-2-yl]-8-chloro-2-methyl-3,9,16,22-tetrazatetracyclo[14.5.2.0^ {5,10}.0^{19,23}]tricosa-1(22),5(10),6,8,17,19(23),20-heptaen-4-one]",44 nM
11,"COc1cc(C(=O)N2C[C@H](N)[C@@H]3CC[C@H]2C3)cc2nc(-c3cc4ccc5nc4n3CC(F)(F)CCCCC3(CC3)C(=O)N[C@@H]5C)n(C3CC3)c12 [Example 940, (11~{R})-17-[5-[(1~{S},4~{R}, 5~{R})-4-amino-2-azabicyclo [3.2.1]octane-2-carbonyl]-1-cyclopropyl-7-methoxy-benzimidazol-2-yl]-3,3-difluoro-11-methyl-spiro[1,10,19-triazatricyclo [10.5.2.0^{15,18}]nonadeca-12(19),13,15(18),16-tetraene-8,1′-cyclopropane]-9-one]",80 nM
12,"COc1cc(C(=O)N2C[C@H](N)[C@@H]3CC[C@H]2C3)cc2nc(-c3cc4ccc5nc4n3CC(F)(F)CCCCC(C)(C)C(=O)N[C@@H]5C)n(C3CC3)c12 [Example 941, (11~{R})-17-[5-[(1~{S},4~{R}, 5~{R})-4-amino-2-azabicyclo [3.2.1]octane-2-carbonyl]-1-cyclopropyl-7-methoxy-benzimidazol-2-yl]-3,3-difluoro-8,8,11-trimethyl-1,10,19-triazatricyclo[10.5.2.0^{15,18}] nonadeca-12(19), 13,15(18),16-tetraen-9-one]",68 nM
13,"COc1cc(C(=O)N2C[C@H](N)[C@@H]3CC[C@H]2C3)cc2nc(-c3cc4ccc5nc4n3CCCCCc3cc(C(F)(F)F)ncc3C(=O)N[C@@H]5C)n(C3CC3)c12 [Example 942, (2~{R})-17-[5-[(1~{S},4~{R},5~ {R})-4-amino-2-azabicyclo [3.2.1]octane-2-carbonyl]-1-cyclopropyl-7-methoxy-benzimidazol-2-yl]-2-methyl-8-(trifluoromethyl)-3,7,16,22-tetrazatetracyclo[14.5.2.0^ {5,10).0^{19,23}]tricosa-1(22), 5(10),6,8,17,19(23),20-heptaen-4-one]",72 nM
14,"COc1cc(C(=O)N2C[C@H](N)[C@@H]3CC[C@H]2C3)cc2nc(-c3cc4ccc5nc4n3CC(F)(F)CCCCC(C)(C)C(=O)N[C@@H]5C)n(C)c12 [Example 943, (11~{R})-17-[5-[(1~{S},4~{R}, 5~{R})-4-amino-2-azabicyclo [3.2.1]octane-2-carbonyl]-7-methoxy-1-methyl-benzimidazol-2-yl]-3,3-difluoro-8,8,11-trimethyl-1,10,19-triazatricyclo[10.5.2.0^{15,18}] nonadeca-12(19), 13,15(18),16-tetraen-9-one]",48 nM
15,"CC(C)n1c(-c2cc3ccc4nc3n2CCCCCc2nc(Cl)ccc2C(=O)N[C@@H]4C)nc2cc(C(=O)N3C[C@H](N)[C@@H]4CC[C@H]3C4)cc(F)c21 [Example 946, (2~{R})-17-[5-[(1~{S},4~ {R},5~{R})-4-amino-2-azabicyclo [3.2.1]octane-2-carbonyl]-7-fluoro-1-isopropyl-benzimidazol-2-yl]-8-chloro-2-methyl-3,9,16,22-tetrazatetracyclo[14.5.2.0^ {5,10}.0^{19,23}]tricosa-1(22),5(10),6,8,17,19(23),20-heptaen-4-one]",69 nM
16,"C[C@H]1NC(=O)c2ccc(Cl)nc2CCCCCn2c(-c3nc4cc(C(=O)N5C[C@H](N)[C@@H]6CC[C@H]5C6)cc(F)c4n3CC(C)(C)C)cc3ccc1nc32 [Example 947, (2~{R})-17-[5-[(1~{S},4~ {R},5~{R})-4-amino-2-azabicyclo[3.2.1]octane-2-carbonyl]-1-(2,2-dimethylpropyl)-7-fluoro-benzimidazol-2-yl]-8-chloro-2-methyl-3,9,16,22-tetrazatetracyclo [14.5.2.0^{5,10}.0^{19,23}] tricosa-1(22),5(10),6,8,17, 19(23),20-heptaen-4-one]",92 nM
17,"COc1cc(C(=O)N2C[C@H](N)[C@@H]3CC[C@H]2C3)cc2nc(-c3cc4ccc5nc4n3CCCCCC[C@@](C)(F)C(=O)N[C@@H]5C)n(C)c12 [Example 948, (8~{R},11~{R})-17-[5-[(1~{S},4~{R},5~{R})-4-amino-2-azabicyclo[3.2.1]octane-2-carbonyl]-7-methoxy-1-methyl-benzimidazol-2-yl]-8-fluoro-8,11-dimethyl-1,10,19-triazatricyclo[10.5.2.0^ {15,18}]nonadeca-12(19), 13,15(18),16-tetraen-9-one]",28 nM
